# Test results published in ChEMBL document CHEMBL4311982, “Discovery of novel, potent, isosteviol-based antithrombotic agents” (Eur J Med Chem, 2019).
# Key:
# [1] = Clearance in Wistar rat at 6.6 umol/kg, iv measured upto 24 hrs by LC-MS/MS analysis; assay type: ADME, organism-based; conditions: in vivo
# [2] = target: Coagulation factor X (Homo sapiens, UniProt P00742); assay: Inhibition of human activated Factor X using S-2765 as substrate incubated for 15 mins followed by substrate addition and measured after 1 hr by chromogenic assay
# [3] = Half life in Wistar rat at 6.6 umol/kg, iv measured upto 24 hrs by LC-MS/MS analysis; assay type: ADME, organism-based; conditions: in vivo
# [4] = Oral bioavailability in Wistar rat at 22 umol/kg measured upto 24 hrs by LC-MS/MS analysis; assay type: ADME, organism-based; conditions: in vivo
# [5] = Volume of distribution in Wistar rat at 6.6 umol/kg, iv measured upto 24 hrs by LC-MS/MS analysis; assay type: ADME, organism-based; conditions: in vivo
# [6] = target: Urokinase-type plasminogen activator (Homo sapiens, UniProt P00749); assay: Inhibition of human uPA using […] uPA substrate incubated for 15 mins followed by substrate addition and measured after 1 hr by chromogenic assay
# [7] = Cmax in Wistar rat at 22 umol/kg, po measured upto 24 hrs by LC-MS/MS analysis; assay type: ADME, organism-based; parameters: dose 22 umol/kg, route oral; conditions: in vivo
# [8] = organism: Rattus norvegicus; further: test concentration or dose not given here
# [9] = target: Tissue-type plasminogen activator (Homo sapiens, UniProt P00750); assay: Inhibition of human tPA using […] tPA substrate incubated for 15 mins followed by substrate addition and measured after 1 hr by chromogenic assay
# [10] = target: Trypsin (Homo sapiens, UniProt P07477+P07478+P35030); assay: Inhibition of human trypsin using S-2222 as substrate incubated for 15 mins followed by substrate addition and measured after 1 hr by chromogenic assay; assay type: protein assay
# [11] = target: T1, Coagulation factor XII (Homo sapiens, UniProt P00748); assay: Inhibition of human activated Factor XII using spectrozyme F XIIa as substrate incubated for 15 mins followed by substrate addition and measured after 1 hr by chromogenic assay
# T1 sequence (P00748 whole entry): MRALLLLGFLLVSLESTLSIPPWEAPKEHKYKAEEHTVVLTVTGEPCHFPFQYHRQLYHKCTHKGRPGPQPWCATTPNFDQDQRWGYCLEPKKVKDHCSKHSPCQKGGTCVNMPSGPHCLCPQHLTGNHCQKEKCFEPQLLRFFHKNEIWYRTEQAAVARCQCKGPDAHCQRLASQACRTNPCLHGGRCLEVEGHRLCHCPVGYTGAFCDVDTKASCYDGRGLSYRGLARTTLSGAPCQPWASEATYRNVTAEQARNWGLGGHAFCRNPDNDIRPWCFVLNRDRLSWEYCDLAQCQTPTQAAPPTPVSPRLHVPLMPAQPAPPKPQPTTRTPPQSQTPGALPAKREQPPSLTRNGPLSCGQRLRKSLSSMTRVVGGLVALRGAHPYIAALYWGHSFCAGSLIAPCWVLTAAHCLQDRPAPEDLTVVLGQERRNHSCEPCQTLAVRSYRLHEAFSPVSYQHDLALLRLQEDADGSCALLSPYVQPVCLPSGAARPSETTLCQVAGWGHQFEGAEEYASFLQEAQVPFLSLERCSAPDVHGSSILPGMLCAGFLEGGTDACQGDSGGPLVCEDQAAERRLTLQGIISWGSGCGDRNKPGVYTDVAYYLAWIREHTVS
# [12] = target: Coagulation factor IX (Homo sapiens, UniProt P00740); assay: Inhibition of human activated Factor IX using spectrozyme F IXa as substrate incubated for 15 mins followed by substrate addition and measured after 1 hr by chromogenic assay
# [13] = organism: Rattus norvegicus; remark: listed apart in the source; further: test concentration or dose not given here
# [14] = target: Plasma kallikrein (Homo sapiens, UniProt P03952); assay: Inhibition of human kallikrein using S-2302 as substrate incubated for 15 mins followed by substrate addition and measured after 1 hr by chromogenic assay
# [15] = MRT in Wistar rat at 6.6 umol/kg, iv measured upto 24 hrs by LC-MS/MS analysis; assay type: ADME, organism-based; conditions: in vivo
# [16] = organism: Rattus norvegicus; remark: listed apart in the source; further: test concentration or dose not given here
# [17] = target: Coagulation factor XI (Homo sapiens, UniProt P03951); assay: Inhibition of human activated Factor XI using S-2366 as substrate incubated for 15 mins followed by substrate addition and measured after 1 hr by chromogenic assay
# [18] = Clearance in Wistar rat at 22 umol/kg, po measured upto 24 hrs by LC-MS/MS analysis; assay type: ADME, organism-based; conditions: in vivo
# [19] = MRT in Wistar rat at 22 umol/kg, po measured upto 24 hrs by LC-MS/MS analysis; assay type: ADME, organism-based; conditions: in vivo
# [20] = AUC (0 to infinity) in Wistar rat at 22 umol/kg, po measured upto 24 hrs by LC-MS/MS analysis; assay type: ADME, organism-based; parameters: dose 22 umol/kg, time infinity, route oral; conditions: in vivo
# [21] = target: T2, Coagulation factor VII (Homo sapiens, UniProt P08709); assay: Inhibition of human activated Factor VII using S-2288 as substrate incubated for 15 mins followed by substrate addition and measured after 1 hr by chromogenic assay
# T2 sequence (P08709 whole entry): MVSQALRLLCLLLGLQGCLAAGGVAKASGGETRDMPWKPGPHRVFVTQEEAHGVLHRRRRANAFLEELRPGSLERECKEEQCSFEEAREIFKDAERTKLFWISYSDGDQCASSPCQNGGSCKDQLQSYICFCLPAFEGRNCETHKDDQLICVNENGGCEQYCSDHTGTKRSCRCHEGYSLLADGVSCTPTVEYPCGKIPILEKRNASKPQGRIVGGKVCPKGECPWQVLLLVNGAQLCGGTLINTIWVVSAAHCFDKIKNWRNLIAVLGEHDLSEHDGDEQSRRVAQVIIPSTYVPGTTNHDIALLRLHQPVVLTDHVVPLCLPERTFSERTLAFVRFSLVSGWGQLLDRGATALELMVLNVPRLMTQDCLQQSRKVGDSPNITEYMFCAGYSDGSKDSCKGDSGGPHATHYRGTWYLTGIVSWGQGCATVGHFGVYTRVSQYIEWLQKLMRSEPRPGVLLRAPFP
# [22] = Half life in Wistar rat at 22 umol/kg, po measured upto 24 hrs by LC-MS/MS analysis; assay type: ADME, organism-based; conditions: in vivo
# [23] = target: Chymotrypsin (Rattus norvegicus); assay: Inhibition of rat chymotrypsin using S-2586 as substrate incubated for 15 mins followed by substrate addition and measured after 1 hr by chromogenic assay
# [24] = Volume of distribution in Wistar rat at 22 umol/kg, po measured upto 24 hrs by LC-MS/MS analysis; assay type: ADME, organism-based; conditions: in vivo
# [25] = AUC (0 to infinity) in Wistar rat at 6.6 umol/kg, iv measured upto 24 hrs by LC-MS/MS analysis; assay type: ADME, organism-based; parameters: dose 6.6 umol/kg, time infinity, route intravenous; conditions: in vivo
# Coagulation factor X, sequence (P00742 41-179 limits assumed): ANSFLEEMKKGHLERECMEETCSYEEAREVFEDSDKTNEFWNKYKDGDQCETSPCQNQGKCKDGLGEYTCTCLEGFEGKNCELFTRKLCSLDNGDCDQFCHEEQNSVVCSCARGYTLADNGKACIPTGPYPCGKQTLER
# Coagulation factor X, sequence (P00742 235-488 limits assumed): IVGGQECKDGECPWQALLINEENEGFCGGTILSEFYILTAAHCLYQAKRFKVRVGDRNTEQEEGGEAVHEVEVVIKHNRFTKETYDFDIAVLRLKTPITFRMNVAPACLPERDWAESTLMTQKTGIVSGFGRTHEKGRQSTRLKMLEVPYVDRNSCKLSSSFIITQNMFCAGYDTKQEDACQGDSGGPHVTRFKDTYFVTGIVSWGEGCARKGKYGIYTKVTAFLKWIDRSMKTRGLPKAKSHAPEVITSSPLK
# Plasma kallikrein, sequence (P03952 20-390 limits assumed): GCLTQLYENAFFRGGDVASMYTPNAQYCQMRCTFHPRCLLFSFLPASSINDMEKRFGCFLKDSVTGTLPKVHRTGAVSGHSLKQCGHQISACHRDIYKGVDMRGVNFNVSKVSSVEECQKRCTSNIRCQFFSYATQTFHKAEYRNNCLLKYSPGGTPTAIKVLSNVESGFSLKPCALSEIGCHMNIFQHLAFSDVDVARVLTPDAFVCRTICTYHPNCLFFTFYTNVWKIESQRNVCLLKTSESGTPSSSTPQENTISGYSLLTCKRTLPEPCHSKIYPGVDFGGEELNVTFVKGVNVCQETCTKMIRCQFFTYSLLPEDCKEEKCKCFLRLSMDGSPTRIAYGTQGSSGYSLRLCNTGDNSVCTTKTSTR
# Plasma kallikrein, sequence (P03952 391-638 limits assumed): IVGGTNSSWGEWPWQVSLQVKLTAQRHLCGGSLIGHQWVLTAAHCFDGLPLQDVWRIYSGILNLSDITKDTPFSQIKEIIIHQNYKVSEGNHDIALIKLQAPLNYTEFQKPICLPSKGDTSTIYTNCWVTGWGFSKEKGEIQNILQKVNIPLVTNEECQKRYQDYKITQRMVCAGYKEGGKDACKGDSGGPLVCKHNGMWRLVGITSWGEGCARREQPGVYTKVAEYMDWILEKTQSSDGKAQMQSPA
# Coagulation factor IX, sequence (P00740 47-191 limits assumed): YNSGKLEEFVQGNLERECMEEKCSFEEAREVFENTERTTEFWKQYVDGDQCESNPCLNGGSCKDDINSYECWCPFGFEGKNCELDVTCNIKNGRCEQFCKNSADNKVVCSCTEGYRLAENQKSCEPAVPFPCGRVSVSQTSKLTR
# Coagulation factor IX, sequence (P00740 227-461 limits assumed): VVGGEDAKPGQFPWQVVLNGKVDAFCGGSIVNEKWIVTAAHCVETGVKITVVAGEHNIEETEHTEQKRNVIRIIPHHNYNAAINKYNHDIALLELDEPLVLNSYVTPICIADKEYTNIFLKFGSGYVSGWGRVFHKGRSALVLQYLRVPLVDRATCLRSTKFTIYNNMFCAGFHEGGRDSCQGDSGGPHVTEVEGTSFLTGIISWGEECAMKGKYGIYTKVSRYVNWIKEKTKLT
# Tissue-type plasminogen activator, sequence (P00750 whole entry): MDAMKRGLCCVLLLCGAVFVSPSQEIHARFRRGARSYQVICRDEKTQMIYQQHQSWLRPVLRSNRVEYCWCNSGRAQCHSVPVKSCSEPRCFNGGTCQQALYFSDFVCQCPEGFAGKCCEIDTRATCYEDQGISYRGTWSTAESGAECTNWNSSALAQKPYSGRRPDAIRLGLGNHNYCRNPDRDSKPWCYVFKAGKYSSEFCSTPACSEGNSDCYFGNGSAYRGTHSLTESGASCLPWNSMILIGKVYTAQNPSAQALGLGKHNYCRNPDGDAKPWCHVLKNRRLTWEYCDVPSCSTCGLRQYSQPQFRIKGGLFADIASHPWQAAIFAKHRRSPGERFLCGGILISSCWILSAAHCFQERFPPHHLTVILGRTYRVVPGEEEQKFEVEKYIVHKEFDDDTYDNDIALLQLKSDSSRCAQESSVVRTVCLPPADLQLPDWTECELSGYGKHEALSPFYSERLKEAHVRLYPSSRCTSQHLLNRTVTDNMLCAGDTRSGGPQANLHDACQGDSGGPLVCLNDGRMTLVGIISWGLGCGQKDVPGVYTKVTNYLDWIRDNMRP
# Coagulation factor XI, sequence (P03951 19-387 limits assumed): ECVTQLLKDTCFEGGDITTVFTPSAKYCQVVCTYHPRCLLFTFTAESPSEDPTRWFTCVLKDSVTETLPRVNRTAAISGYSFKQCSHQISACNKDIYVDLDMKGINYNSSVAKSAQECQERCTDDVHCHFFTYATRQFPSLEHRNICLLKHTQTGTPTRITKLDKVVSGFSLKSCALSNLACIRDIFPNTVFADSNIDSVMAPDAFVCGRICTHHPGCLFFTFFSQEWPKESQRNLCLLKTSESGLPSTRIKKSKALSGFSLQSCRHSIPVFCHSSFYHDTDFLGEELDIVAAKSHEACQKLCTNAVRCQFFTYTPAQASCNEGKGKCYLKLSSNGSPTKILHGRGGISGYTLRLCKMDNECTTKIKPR
# Coagulation factor XI, sequence (P03951 388-625 limits assumed): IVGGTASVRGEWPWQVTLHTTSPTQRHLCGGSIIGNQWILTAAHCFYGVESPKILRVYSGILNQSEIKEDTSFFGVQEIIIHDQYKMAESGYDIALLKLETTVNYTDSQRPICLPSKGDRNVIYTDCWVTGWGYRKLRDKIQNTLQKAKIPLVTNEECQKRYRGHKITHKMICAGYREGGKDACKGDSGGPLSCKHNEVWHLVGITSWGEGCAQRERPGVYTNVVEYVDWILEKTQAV
compound,measurement,setting,value
CCOC(=O)[C@]1(C)CCC[C@@]2(C)[C@@H]3CC[C@@]4(C)C[C@]3(CC[C@@H]21)C/C4=N\OCC1(C)COC1,clearance,[1],15 mL/min
same,Ki,[2],0.028 µM
same,half-life,[3],3.4 h
same,bioavailability,[4],42.7%
same,Vd,[5],4.3 L
same,Ki,[6],2.03 µM
same,Cmax,[7],728 ng/mL
same,PT,[8],18.2 s
same,Ki,[9],2.83 µM
same,Ki,[10],0.331 µM
same,Ki,[11],7.64 µM
same,Ki,[12],4.76 µM
same,APTT,[13],20.6 s
same,Ki,[14],0.277 µM
same,MRT,[15],4.9 h
same,TT,[16],22 min
same,Ki,[17],1.94 µM
same,CL/F,[18],35 mL/min
same,MRT,[19],5.6 h
same,AUC(0-inf),[20],4810 ng·h/mL
same,Ki,[21],7.99 µM
same,half-life,[22],4.2 h
same,Ki,[23],12.378 µM
same,Vd,[24],12.5 L
same,AUC(0-inf),[25],3380 ng·h/mL
CCOC(=O)[C@]1(C)CCC[C@@]2(C)[C@@H]3CC[C@@]4(C)C[C@]3(CC[C@@H]21)C/C4=N\OCc1ccsc1,clearance,[1],15 mL/min
same,Ki,[2],0.015 µM
same,half-life,[3],3.2 h
same,bioavailability,[4],48.6%
same,Vd,[5],4 L
same,Ki,[6],4.43 µM
same,Cmax,[7],1250 ng/mL
same,PT,[8],19.1 s
same,Ki,[9],3.53 µM
same,Ki,[10],2.13 µM
same,Ki,[11],9.29 µM
same,Ki,[12],19.7 µM
same,APTT,[13],21.3 s
same,Ki,[14],2.21 µM
same,MRT,[15],4.6 h
same,TT,[16],25.5 min
same,Ki,[17],1.7 µM
same,CL/F,[18],30 mL/min
same,MRT,[19],4.1 h
same,AUC(0-inf),[20],5530 ng·h/mL
same,Ki,[21],11.6 µM
same,half-life,[22],3.9 h
same,Ki,[23],16.262 µM
same,Vd,[24],10.2 L
same,AUC(0-inf),[25],3410 ng·h/mL
